Results from ChEMBL document CHEMBL1201862, “PubChem BioAssay data set” (2004).
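96-well plates; 48 h exposure; 5 concentrations. Endpoints by linear interpolation between flanking doses. Not reached: highest tested concentration assigned. GI50: concentration for 50% inhibition of growth.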 Calls of active or inactive are those of the source. Cut-off read from the data, not from the text of the source: active = GI50 up to about 1.1 µM and inactive = higher.

Experiments:
Test in all cases: NCI anticancer screen, dose series, 48 h
[1] = tested on: 786-0
[2] = tested on: A498
[3] = tested on: A549
[4] = tested on: ACHN
[5] = tested on: BT-549
[6] = tested on: CAKI-1
[7] = tested on: CCRF-CEM
[8] = tested on: COLO 205
[9] = tested on: DU-145
[10] = tested on: EKVX
[11] = tested on: HCC 2998
[12] = tested on: HCT-116
[13] = tested on: HCT-15
[14] = tested on: HL-60
[15] = tested on: HOP-62
[16] = tested on: HOP-92
[17] = tested on: HT-29
[18] = tested on: Hs-578T
[19] = tested on: IGROV-1
[20] = tested on: K562
[21] = tested on: KM12
[22] = tested on: LOX IMVI
[23] = tested on: M14
[24] = tested on: MCF7
[25] = tested on: MDA-MB-231
[26] = tested on: MDA-MB-435
[27] = tested on: MDA-N
[28] = tested on: MOLT-4
[29] = tested on: Malme-3M
[30] = tested on: NCI-H226
[31] = tested on: NCI-H23
[32] = tested on: NCI-H460
[33] = tested on: NCI-H522
[34] = tested on: NCI/ADR-RES
[35] = tested on: OVCAR-3
[36] = tested on: OVCAR-4
[37] = tested on: OVCAR-5
[38] = tested on: OVCAR-8
[39] = tested on: PC-3
[40] = tested on: RPMI-8226
[41] = tested on: RXF 393
[42] = tested on: SF-268
[43] = tested on: SF-295
[44] = tested on: SF-539
[45] = tested on: SK-MEL-2
[46] = tested on: SK-MEL-5
[47] = tested on: SK-OV-3
[48] = tested on: SN12C
[49] = tested on: SNB-19
[50] = tested on: SNB-75
[51] = tested on: SW-620
[52] = tested on: T47D
[53] = tested on: TK-10
[54] = tested on: U-251
[55] = tested on: UACC-257
[56] = tested on: UACC-62
[57] = tested on: UO-31
[58] = tested on: SK-MEL-28
[59] = tested on: SR

CCCCc1ccc(Nc2nc(OC)c3ncn(C4CC(O)C(CO)O4)c3n2)cc1 (configuration not stated)
GI50 [1]: 16.4 µM (inactive)
GI50 [2]: 19.7 µM (inactive)
GI50 [3]: 16.8 µM (inactive)
GI50 [4]: 16.4 µM (inactive)
GI50 [5]: 18.9 µM (inactive)
GI50 [6]: 1.85 µM (inactive)
GI50 [7]: 17.5 µM (inactive)
GI50 [8]: 14.2 µM (inactive)
GI50 [9]: 19.6 µM (inactive)
GI50 [10]: 1.58 µM (inactive)
GI50 [11]: 6.44 µM (inactive)
GI50 [12]: 15.8 µM (inactive)
GI50 [13]: 13.9 µM
GI50 [14]: 2.05 µM (inactive)
GI50 [15]: 34 µM (inactive)
GI50 [16]: 1.97 µM (inactive)
GI50 [17]: 19.2 µM (inactive)
GI50 [18]: 18.4 µM (inactive)
GI50 [19]: 12.5 µM (inactive)
GI50 [20]: 6.15 µM (inactive)
GI50 [21]: 16.5 µM (inactive)
GI50 [22]: 12.1 µM (inactive)
GI50 [23]: 28.9 µM (inactive)
GI50 [24]: 14.2 µM (inactive)
GI50 [25]: 17.7 µM (inactive)
GI50 [26]: 17.7 µM (inactive)
GI50 [27]: 15.5 µM (inactive)
GI50 [28]: 16.9 µM (inactive)
GI50 [29]: 20.7 µM (inactive)
GI50 [30]: 19.4 µM (inactive)
GI50 [31]: 18 µM (inactive)
GI50 [32]: 16.4 µM (inactive)
GI50 [33]: 1.86 µM (inactive)
GI50 [34]: 27 µM (inactive)
GI50 [35]: 22.4 µM (inactive)
GI50 [36]: 18 µM (inactive)
GI50 [37]: 35.4 µM (inactive)
GI50 [38]: 16.4 µM (inactive)
GI50 [39]: 18.1 µM (inactive)
GI50 [40]: 27.2 µM (inactive)
GI50 [41]: 14.8 µM (inactive)
GI50 [42]: 16.6 µM (inactive)
GI50 [43]: 18.5 µM (inactive)
GI50 [44]: 13.7 µM (inactive)
GI50 [45]: 20.2 µM (inactive)
GI50 [46]: 18.7 µM (inactive)
GI50 [47]: 13.2 µM (inactive)
GI50 [48]: 13.3 µM (inactive)
GI50 [49]: 19.2 µM (inactive)
GI50 [50]: 18 µM (inactive)
GI50 [51]: 19.7 µM (inactive)
GI50 [52]: 18.9 µM (inactive)
GI50 [53]: 23.4 µM (inactive)
GI50 [54]: 20.7 µM (inactive)
GI50 [55]: 17.7 µM (inactive)
GI50 [56]: 17 µM (inactive)
GI50 [57]: 19.2 µM (inactive)

CC(=O)NC(CSC1=C2NC(=O)\C=C/C=C\C=C/C(C)C(O)CC(=O)/C(C)=C\CC(O)/C=C\C(C)C(O)C(C)C=C(C)C(=O)c3c(O)c(C)cc(c3C1=O)C2=O)C(=O)O (configuration not stated)
GI50 [1]: 89.7 µM (inactive)
GI50 [2]: > 100 µM (inactive)
GI50 [3]: > 100 µM (inactive)
GI50 [4]: 66.4 µM (inactive)
GI50 [5]: > 100 µM (inactive)
GI50 [6]: > 100 µM (inactive)
GI50 [7]: 22.3 µM (inactive)
GI50 [8]: 21.7 µM (inactive)
GI50 [9]: 61.8 µM (inactive)
GI50 [10]: > 100 µM (inactive)
GI50 [12]: 36.4 µM (inactive)
GI50 [13]: > 100 µM
GI50 [14]: 23.6 µM (inactive)
GI50 [15]: 74 µM (inactive)
GI50 [16]: > 100 µM (inactive)
GI50 [17]: 47.2 µM (inactive)
GI50 [18]: 27.5 µM (inactive)
GI50 [19]: 43.1 µM (inactive)
GI50 [20]: 39.1 µM (inactive)
GI50 [21]: 33.7 µM (inactive)
GI50 [22]: 69.2 µM (inactive)
GI50 [23]: > 100 µM (inactive)
GI50 [24]: 53.3 µM (inactive)
GI50 [25]: 24.6 µM (inactive)
GI50 [26]: > 100 µM (inactive)
GI50 [27]: 51.4 µM (inactive)
GI50 [28]: 28.6 µM (inactive)
GI50 [29]: 52.1 µM (inactive)
GI50 [30]: > 100 µM (inactive)
GI50 [31]: > 100 µM (inactive)
GI50 [32]: 94 µM (inactive)
GI50 [33]: 17.3 µM (inactive)
GI50 [34]: > 100 µM (inactive)
GI50 [35]: 96.6 µM (inactive)
GI50 [36]: > 100 µM (inactive)
GI50 [37]: > 100 µM (inactive)
GI50 [38]: > 100 µM (inactive)
GI50 [39]: > 100 µM (inactive)
GI50 [43]: > 100 µM (inactive)
GI50 [44]: > 100 µM (inactive)
GI50 [58]: 30.3 µM (inactive)
GI50 [45]: 80.7 µM (inactive)
GI50 [46]: 39.3 µM (inactive)
GI50 [47]: > 100 µM (inactive)
GI50 [48]: 79.1 µM (inactive)
GI50 [49]: 61.4 µM (inactive)
GI50 [50]: 28.6 µM (inactive)
GI50 [59]: 33.5 µM (inactive)
GI50 [51]: 45.7 µM (inactive)
GI50 [52]: 91 µM (inactive)
GI50 [53]: > 100 µM (inactive)
GI50 [54]: 43.2 µM (inactive)
GI50 [55]: 41.8 µM (inactive)
GI50 [56]: 51.5 µM (inactive)
GI50 [57]: > 100 µM (inactive)
